Experimental data taken from patent publication US10495571B2 (priority 2014, dated 2019).

Settings: CMD-3D layer without HSA, PBS buffer, drug cM1 0.00-50 μM, DMSO 0.5%, 5%
Source text: The functional layer AF1 of the second sample region REG2 was otherwise similar to the functional layer AF1 of the first sample region REG1, except that the functional layer AF1 of the first sample region REG1 comprised HSA. […] B0b denotes the input beam impinging on the second sample region REG2, and B1b denotes the reflected beam reflected from the second sample region REG2. ZV2 denotes the sample volume of the second sample region REG2.
Prior to the second test, the functional layer AF1 of the second sample region was formed by a method, which comprised: • attaching a layer of CMD-3D to the metal layer 120 of the sensor, • washing the layer of CMD-3D with an aqueous solution, which comprised 2M NaCl and 10 mM NaOH, • activating the layer of CMD-3D with an activation solution, which comprised EDC and NHS. • treating the layer of CMD-3D with an aqueous solution, which comprised MES (the bulk concentration of MES was 5 mM and pH 5.0), • deactivating the functional layer AF1 by exposing it to an aqueous solution, which comprised ethanolamine (pH 8.0). • washing the functional layer AF1 with an aqueous solution, which comprised 50 mM NaOH. […]
The curve ϕAUX,CH2(t) may be calculated e.g. by using a modified equation (7h), where the parameter C may be determined by using a modified equation (7d), and the parameter D may be determined by using a modified equation (7i). […]

## indomethacine
  average value of the auxiliary angle ϕAUX,CH2(t) of the second sample region (reference, no HSA): substantially independent of the bulk concentration cM1
